In PubChem BioAssay (NCI):
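Assay format: 96-well plates, 48-hour exposure. At the GI50, growth is halved. Definition used: TGI = concentration required for complete inhibition of growth.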 Where a SMILES comes first, the peptide text is derived from it. [ ]: non-standard residue; d: D form. The star is where a group is joined. ξ: configuration not given here. 4Abz = Nc1ccc(C(=O)O)cc1; ξL = CC(C)CC(N)C(=O)O; NHOH = ON*

Tests used:
Experiment in all cases: NCI tumour cell line growth inhibition, 48 h
A549 NSCLC = tested on: A549 NSCLC
COLO 205 colon = tested on: COLO 205 colon
HOP-62 NSCLC = tested on: HOP-62 NSCLC
K-562 leukemia = tested on: K-562 leukemia
NCI-H226 lung = tested on: NCI-H226 lung
OVCAR-5 ovarian = tested on: OVCAR-5 ovarian
UACC-257 melanoma = tested on: UACC-257 melanoma
UO-31 renal = tested on: UO-31 renal
A498 renal = tested on: A498 renal
CAKI-1 renal = tested on: CAKI-1 renal

SMILES | TGI (A549 NSCLC) | TGI (COLO 205 colon) | TGI (HOP-62 NSCLC) | TGI (K-562 leukemia) | TGI (NCI-H226 lung) | TGI (OVCAR-5 ovarian) | TGI (UACC-257 melanoma) | TGI (UO-31 renal) | GI50 (A498 renal) | TGI (A498 renal) | GI50 (A549 NSCLC) | GI50 (COLO 205 colon) | GI50 (HOP-62 NSCLC) | GI50 (K-562 leukemia) | GI50 (NCI-H226 lung) | GI50 (OVCAR-5 ovarian) | GI50 (UACC-257 melanoma) | GI50 (UO-31 renal) | GI50 (CAKI-1 renal) | TGI (CAKI-1 renal)
CCOc1cccc2cccnc12 | > 100 µM | > 100 µM | > 100 µM | > 100 µM | > 100 µM | > 100 µM | > 100 µM | > 100 µM | – | – | – | – | – | – | – | – | – | – | – | –
C=CC[n+]1c(/C=C2\Sc3ccccc3N2C)sc(-c2ccccc2)c1-c1ccccc1 | 11 µM | 0.658 µM | 4.75 µM | 10 µM | 0.977 µM | 12.6 µM | 0.737 µM | 4.4 µM | 0.264 µM | 2.32 µM | 0.339 µM | 0.249 µM | 0.302 µM | 0.344 µM | 0.258 µM | 0.383 µM | 0.239 µM | 1.61 µM | – | –
CC(C)CC(NC(=O)[C@@H]1CCCN1C(=O)CNC(=O)c1ccc(N)cc1)C(=O)N[C@H](C)C(=O)NO (stereo partly specified) (H-[4Abz]GP[ξL][dA]-{NHOH}) | > 100 µM | > 100 µM | > 100 µM | > 100 µM | > 100 µM | > 100 µM | > 100 µM | > 100 µM | – | – | > 100 µM | > 100 µM | > 100 µM | > 100 µM | > 100 µM | > 100 µM | > 100 µM | > 100 µM | > 100 µM | > 100 µM
COc1ncn(C2C=C(CO)C(O)C2O)c(=O)n1 (stereo unspecified) | > 100 µM | > 100 µM | > 100 µM | > 100 µM | > 100 µM | – | > 100 µM | > 100 µM | – | > 100 µM | – | – | – | – | – | – | – | – | – | –
CCOC(=O)C(=C=Cc1cccs1)C(=O)c1ccccc1 | 45.5 µM | 31.4 µM | 33.9 µM | > 100 µM | 32.7 µM | 28.5 µM | 25.5 µM | 27.3 µM | – | 35.5 µM | – | – | – | – | – | – | – | – | – | –
COC(=O)C(=O)C(C(=O)C(=O)Nc1ccc(Cl)cc1Cl)c1nc2ccc(Cl)cc2[nH]c1=O (stereo unspecified) | > 100 µM | > 100 µM | > 100 µM | – | > 100 µM | > 100 µM | > 100 µM | > 100 µM | – | – | – | – | – | – | – | – | – | – | – | > 100 µM
Cc1c(Br)cccc1NC(=O)c1sc2nc3c(cc2c1N)CN(Cc1ccccc1)CC3 | 19.6 µM | – | 4.44 µM | – | 18.9 µM | > 50 µM | > 50 µM | > 50 µM | 0.186 µM | 3.89 µM | 0.491 µM | – | 0.204 µM | – | 1.18 µM | 0.289 µM | 8.92 µM | 0.412 µM | – | –
Nc1nc(Cl)cc2c1ncn2C1OC(CO)C(O)C1O (stereo unspecified) | > 100 µM | > 100 µM | > 100 µM | > 100 µM | – | > 100 µM | > 100 µM | > 100 µM | > 100 µM | > 100 µM | > 100 µM | > 100 µM | > 100 µM | > 100 µM | – | > 100 µM | > 100 µM | > 100 µM | – | –
CN1CCN(c2nc(NCCNc3ccnc4cc(Cl)ccc34)c3ccccc3n2)CC1 | 5.97 µM | 2.33 µM | 14.2 µM | 3.82 µM | 28.7 µM | 13.3 µM | 3.18 µM | 3.53 µM | 12.3 µM | 25.5 µM | 1.44 µM | 0.974 µM | 2.73 µM | 0.721 µM | 10.6 µM | 3.35 µM | 1.71 µM | 1.55 µM | – | –
Cc1cc(C)c(-c2noc(-c3ccc(Cl)cc3)c2C2=NCCN2)c(C)c1 | > 100 µM | 35.2 µM | 62 µM | 37.4 µM | 68.3 µM | > 100 µM | 34 µM | 46.9 µM | – | – | – | – | – | – | – | – | – | – | – | > 100 µM
COC(=O)C1=C(SC)SC2(C(=O)OC)C3C=C(C)C4C(N13)C42C(=O)OC (stereo unspecified) | > 100 µM | > 100 µM | > 100 µM | > 100 µM | > 100 µM | > 100 µM | > 100 µM | > 100 µM | – | – | – | – | – | – | – | – | – | – | – | > 100 µM
O=C(N/C(=C\c1cc(Cl)ccc1Cl)c1nc2ccccc2[nH]1)c1ccccc1 | > 100 µM | – | – | 76.6 µM | – | > 100 µM | – | 62.7 µM | – | – | – | – | – | – | – | – | – | – | – | > 100 µM
N#CC1=C(N)NC(=S)NC1c1ccc(-c2ccc(-c3nc4ccccc4s3)cc2)o1 (stereo unspecified) | > 50 µM | > 50 µM | > 50 µM | 22 µM | – | > 50 µM | > 50 µM | > 50 µM | – | – | 31.6 µM | 17.4 µM | > 50 µM | 9.98 µM | – | > 50 µM | 36.9 µM | > 50 µM | 35.3 µM | > 50 µM
C=C1c2c(C)nn(-c3ccccc3)c2N(C)C23C[C@@H]1C1(C)c4c(C)nn(-c5ccccc5)c4N(C)C(C)(C[C@H]12)C3 (stereo partly specified) | > 100 µM | – | 25.9 µM | – | > 100 µM | > 100 µM | > 100 µM | – | 4.28 µM | 45.9 µM | 2.37 µM | – | 7.15 µM | – | 15.3 µM | > 100 µM | 2.87 µM | – | – | –
Cc1cc(C)c2nc(Nc3nc(C)c(C)c(=O)[nH]3)nc(C)c2c1 | 5.92 µM | 7.51 µM | 8.82 µM | 11.1 µM | 15.4 µM | 18.5 µM | 9.22 µM | 5.86 µM | 2.02 µM | 5.54 µM | 2.27 µM | 2.51 µM | 1.96 µM | 2.53 µM | 2.93 µM | 3.01 µM | 2.82 µM | 1.82 µM | – | –
N#CC1=C(N)Oc2c(sc3c(F)cccc23)C1c1ccc(Cl)cc1 (stereo unspecified) | 17.5 µM | 6.15 µM | 15.7 µM | 16.3 µM | 34.8 µM | 34 µM | > 100 µM | 11.5 µM | 2.57 µM | 11.2 µM | 4.24 µM | 2.31 µM | 2.99 µM | 1.28 µM | 12.7 µM | 10.2 µM | 11.7 µM | 2.49 µM | – | –
O=C1C=Cc2cc3ccccc3c3cccc1c23 | 22.8 µM | > 100 µM | 29.5 µM | > 100 µM | 10 µM | 27.5 µM | 19.2 µM | > 100 µM | – | – | 1.43 µM | 8.41 µM | 2.12 µM | 5.59 µM | 2.61 µM | 3.44 µM | 4.29 µM | 7.31 µM | 2.51 µM | 7.1 µM
COc1cc(C2CC(c3ccc(C)cc3)=NN2C(C)=O)ccc1Oc1ccnc2cc(Cl)ccc12 (stereo unspecified) | – | > 100 µM | > 100 µM | > 100 µM | > 100 µM | > 100 µM | > 100 µM | – | 13.1 µM | 78 µM | – | > 100 µM | 4.3 µM | > 100 µM | 5.38 µM | > 100 µM | > 100 µM | – | – | –
CC(C)CCC[C@@H](C)C1CCC2[C@@H]3CC=C4C[C@@H](OC(=O)CCC(=O)NCC[N+](C)(C)CCCS(=O)(=O)[O-])CC[C@]4(C)C3CC[C@@]21C (stereo partly specified) | 37.8 µM | 40.3 µM | 33.9 µM | 37.6 µM | 50.5 µM | – | 48.8 µM | > 100 µM | – | – | – | – | – | – | – | – | – | – | – | > 100 µM
COc1cc(C=C2C(=O)OC(C)(C)OC2=O)cc(OC)c1OC | > 100 µM | > 100 µM | – | > 100 µM | > 100 µM | > 100 µM | > 100 µM | > 100 µM | – | – | – | – | – | – | – | – | – | – | – | > 100 µM
Cc1ccc(NC(=O)C(=O)C2C(=O)C3=C(CC2(C)C)NC2C=CC=CC2S3)c(C)c1 (stereo unspecified) | > 100 µM | > 100 µM | – | – | > 100 µM | – | > 100 µM | > 100 µM | – | – | – | – | – | – | – | – | – | – | – | > 100 µM
O=C(CC1Sc2ccccc2NC1=O)Nc1ccc([N+](=O)[O-])cc1[N+](=O)[O-] (stereo unspecified) | 88.7 µM | > 100 µM | > 100 µM | – | 42.6 µM | 62.3 µM | 46.2 µM | 25.1 µM | – | – | – | – | – | – | – | – | – | – | – | –
COC(=O)CC[C@@H](NC(=O)C(C)NC(=O)COC1C(O)C(COC(=O)CCCCCCCCCCNC(=O)c2ccc([N+](=O)[O-])c3[nH]c4cc(Br)ccc4c(=O)c23)OC(OCc2ccccc2)C1NC(C)=O)C(N)=O (stereo partly specified) | > 100 µM | > 100 µM | > 100 µM | > 100 µM | 98 µM | > 100 µM | > 100 µM | > 100 µM | – | – | – | – | – | – | – | – | – | – | – | > 100 µM
COc1ccc(-n2cc(-c3ccc(Cl)cc3)[nH]c2=S)cc1Cl | > 100 µM | > 100 µM | 92.2 µM | > 100 µM | 65.6 µM | > 100 µM | > 100 µM | 47.8 µM | – | – | 46.6 µM | > 100 µM | 32.4 µM | > 100 µM | 23.7 µM | > 100 µM | > 100 µM | 19.1 µM | 24.3 µM | 56.7 µM
OCCOCn1nc(-c2ccccc2)nc1-c1cnccn1 | > 100 µM | > 100 µM | > 100 µM | > 100 µM | – | > 100 µM | > 100 µM | > 100 µM | – | – | – | – | – | – | – | – | – | – | – | –
CCC(C)CNC1=C(NC(C)=O)C(=O)c2ccccc2C1=O (stereo unspecified) | > 100 µM | > 100 µM | > 100 µM | > 100 µM | > 100 µM | – | > 100 µM | > 100 µM | – | – | – | – | – | – | – | – | – | – | – | –
